Legend:
Plasmodium falciparum [1] = experiment: Antimalarial activity against Plasmodium falciparum 3D7 assessed as reduction in parasitemia measured after 72 hrs by SYBR Green I dye based fluorescence assay; assay type: functional, organism-based; conditions: 3D7, 72 h
Plasmodium falciparum [2] = experiment: Antimalarial activity against CQ/SDX/PYR/MQ/CYC resistant Plasmodium falciparum Dd2 assessed as reduction in parasitemia measured after 72 hrs by SYBR Green I dye based fluorescence assay; assay type: functional, organism-based; conditions: Dd2, 72 h
[3] = Resistance index, ratio of IC50 for antimalarial activity against CQ/SDX/PYR/MQ/CYC resistant Plasmodium falciparum Dd2 to IC50 for antimalarial activity against Plasmodium falciparum 3D7; assay type: functional
[4] = Resistance index, ratio of IC50 for antimalarial activity against MMV848 resistant Plasmodium falciparum 3D7r_MMV848 to IC50 for antimalarial activity against Plasmodium falciparum 3D7; assay type: functional
[5] = Resistance index, ratio of IC50 for antimalarial activity against CQ/PYR/ATO resistant Plasmodium falciparum TM90C6B to IC50 for antimalarial activity against Plasmodium falciparum 3D7; assay type: functional
Plasmodium falciparum [6] = experiment: Antimalarial activity against MMV848 resistant Plasmodium falciparum 3D7r_MMV848 assessed as reduction in parasitemia measured after 72 hrs by SYBR Green I dye based fluorescence assay; assay type: functional, organism-based; conditions: 3D7r_MMV848, 72 h
[7] = Cytotoxicity against human HepG2 cells assessed as inhibition of cell growth incubated for 72 hrs by MTT assay; assay type: toxicity, cell-based
Plasmodium falciparum [8] = experiment: Antimalarial activity against CQ/PYR/ATO resistant Plasmodium falciparum TM90C6B assessed as reduction in parasitemia measured after 72 hrs by SYBR Green I dye based fluorescence assay; assay type: functional, organism-based

SMILES | IC50 (Plasmodium falciparum [1]) [nM] | IC50 (Plasmodium falciparum [2]) [µM] | Ratio IC50 [3] | Ratio IC50 [4] | Ratio IC50 [5] | IC50 (Plasmodium falciparum [6]) [µM] | IC50 at 72 h [7] [µM] | IC50 (Plasmodium falciparum [8]) [µM]
CCc1nc(N)nc(N)c1-c1ccc(Cl)cc1 [PYRIMETHAMINE] | 60 | > 10 | > 166 | – | – | – | – | –
C[C@@H]1CC[C@H]2[C@@H](C)C(=O)O[C@@H]3O[C@@]4(C)CC[C@@H]1[C@]32OO4 [ARTEMISININ] | 6 | 0.011 | 2 | 2 | 1 | 0.013 | – | –
O=c1occ(-c2ccc(O)cc2)c2cc(O)ccc12 | 19000 | 37 | 1.9 | 1.2 | 1 | 23 | > 100 | 19
CC(C)c1c(C(=O)Nc2ccccc2)c(-c2ccccc2)c(-c2ccc(F)cc2)n1CC[C@@H](O)C[C@@H](O)CC(=O)O [ATORVASTATIN] | – | – | – | – | > 1430 | – | – | > 1
